Results on 15 molecules are retold here after patent publication US20240228489A1, “POSITIVE ALLOSTERIC MODULATORS OF THE MUSCARINIC ACETYLCHOLINE RECEPTOR M1” (Vanderbilt University, priority 2021, published 2024).

SMILES strings stand for the structures.

Assay [1] concerns the target T1, human mAChR M1 (Homo sapiens, UniProt P11229).
T1 sequence (P11229 1-460): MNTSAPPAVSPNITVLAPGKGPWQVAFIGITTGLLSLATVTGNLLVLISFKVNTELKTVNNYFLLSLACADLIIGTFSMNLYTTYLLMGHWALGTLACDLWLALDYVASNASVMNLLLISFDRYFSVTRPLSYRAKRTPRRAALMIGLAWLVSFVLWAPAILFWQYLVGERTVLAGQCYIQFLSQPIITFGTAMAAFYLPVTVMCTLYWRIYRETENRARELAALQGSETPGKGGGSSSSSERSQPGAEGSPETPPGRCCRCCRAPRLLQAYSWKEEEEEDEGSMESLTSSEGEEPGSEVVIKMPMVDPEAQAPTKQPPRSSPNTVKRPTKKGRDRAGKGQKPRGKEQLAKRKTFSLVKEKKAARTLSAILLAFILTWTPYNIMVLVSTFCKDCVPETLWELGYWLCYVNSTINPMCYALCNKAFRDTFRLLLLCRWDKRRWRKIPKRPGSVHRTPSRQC
Kind of assay: mAChR M1 cell-based functional assay (calcium mobilization), PAM mode: increase in the EC20 acetylcholine response. A digest of the protocol:
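CHO-K1 cells stably expressing hM1, Fluo-4 loaded, read by FDSS calcium flux at 1 Hz. Compound (11-point 1:3 CRC) added at 4 s, EC20 acetylcholine at 144 s, EC80 at 230 s. PAM activity taken as concentration-dependent increase in EC20 ACh response, fitted by four-parameter logistic for EC50/Emax.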
In general terms: A change in cytosolic calcium serves as a functional read-out for many receptors and channels.

Assay [2] deals with T1, human mAChR M1. Kind of assay: mAChR M1 cell-based functional assay (calcium mobilization), agonist mode: compound alone, Emax relative to acetylcholine maximum. Conditions: for Agonist Activity Human M1 EC50 / EC50: human mAChR M1; for Emax: relative to the maximum for acetylcholine. A digest of the protocol: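 CHO-K1 cells stably expressing hM1 were loaded with Fluo-4 AM, and calcium flux was read as fluorescence ratio. Compound was added alone from an 11-point 1:3 curve, and the agonist response was fitted with a four-parameter logistic. Emax is expressed relative to the acetylcholine maximum.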

A word on the EC50: it is the concentration giving half of the maximal effect. For orientation: Emax means the greatest response seen or fitted, relative to the assay's reference. With `[2H]C1([2H])c2ncccc2C(=O)N1Cc1c(F)cc(-c2cccc3nn(C)cc23)cc1F` [Compound 1, 6-(2,6-difluoro-4-(2-methyl-2H-indazol-4-yl)benzyl)-6,7-dihydro-5H-pyrrolo[3,4-b]pyridin-5-one-7,7-d2], at human mAChR M1 [1], the EC50 amounted to 0.538 µM and the maximum response (Emax) is 84%. Further, at human mAChR M1 [2], the “Agonist Activity Human M1 EC50” value is listed as “Inactive” and the Emax is 8%.

On to `[2H]C1([2H])c2ncccc2C(=O)N1Cc1c(F)cc(-c2ccc(OC3CCOCC3)c3nn(C)cc23)cc1F` [Compound 140, 6-(2,6-difluoro-4-(2-methyl-7-((tetrahydro-2H-pyran-4-yl)oxy)-2H-indazol-4-yl)benzyl)-6,7-dihydro-5H-pyrrolo[3,4-b]pyridin-5-one-7,7-d2], for which the EC50 stood at 0.288 µM on human mAChR M1 [1] and 8.2 µM on human mAChR M1 [2]. Further, the Emax at human mAChR M1 [1] was found to be 72%; at human mAChR M1 [2], 54%.

Take `[2H]C1([2H])c2ncccc2C(=O)N1Cc1c(F)cc(-c2ccc(OCCOC)c3nn(C([2H])([2H])[2H])cc23)cc1F` [Compound 114, 6-(2,6-difluoro-4-(7-(2-methoxyethoxy)-2-(methyl-d3)-2H-indazol-4-yl)benzyl)-6,7-dihydro-5H-pyrrolo[3,4-b]pyridin-5-one-7,7-d2]: the EC50 at human mAChR M1 [1] turned out to be 0.162 µM; at human mAChR M1 [2], 8.01 µM. The maximum response (Emax) at human mAChR M1 [1] came to 77%; at human mAChR M1 [2], 43%.

With `[2H]C1([2H])c2ncccc2C(=O)N1Cc1c(F)cc(-c2ccc(OC3CN(C(=O)OC(C)(C)C)C3)c3nn(C)cc23)cc1F` [Compound 173, tert-butyl 3-((4-(3,5-difluoro-4-((5-oxo-5,7-dihydro-6H-pyrrolo[3,4-b]pyridin-6-yl-7,7-d2)methyl)phenyl)-2-methyl-2H-indaazol-7-yl)oxy)azetidine-1-carboxylate], at human mAChR M1 [1], the EC50 was 1.34 µM and the Emax stood at 82%. Besides, on human mAChR M1 [2], the “Agonist Activity Human M1 EC50” value was “Inactive” and the Emax was found to be 2%.

Consider `[2H]C1([2H])c2ncccc2C(=O)N1Cc1ccc(-c2cc(C)c3nn(C)cc3c2)cc1` [Compound 17, 6-(4-(2,7-dimethyl-2H-indazol-5-yl)benzyl)-6,7-dihydro-5H-pyrrolo[3,4-b]pyridin-5-one-7,7-d2], for which, on human mAChR M1 [1], the EC50 is 0.853 µM and the Emax stood at 79%. Besides, at human mAChR M1 [2], the “Agonist Activity Human M1 EC50” value is “Inactive” and the Emax worked out at 4%.

Consider `[2H]C1([2H])c2ncccc2C(=O)N1Cc1ccc(-c2ccc(OC(F)(F)F)c3nn(C)cc23)cc1F` [Compound 110, 6-(2-fluoro-4-(2-methyl-7-(trifluoromethoxy)-2H-indazol-4-yl)benzyl)-6,7-dihydro-5H-pyrrolo[3,4-b]pyridin-5-one-7,7-d2], for which, at human mAChR M1 [1], the EC50 came to 1.44 µM and the Emax came to 71%. Besides, at human mAChR M1 [2], the “Agonist Activity Human M1 EC50” value is recorded as “Inactive” and the Emax was found to be 4%.

With `[2H]C1([2H])c2ncccc2C(=O)N1Cc1ccc(-c2ccc3nn(C)cc3c2C)cc1` [Compound 238, 6-(4-(2,4-dimethyl-2H-indazol-5-yl)benzyl)-6,7-dihydro-5H-pyrrolo[3,4-b]pyridin-5-one-7,7-d2], at human mAChR M1 [1], the EC50 is above 10 µM and the maximum response (Emax) came out at 39%. Further, at human mAChR M1 [2], the “Agonist Activity Human M1 EC50” value is reported as “Inactive” and the Emax worked out at 2%.

`[2H]C1([2H])c2ncccc2C(=O)N1Cc1c(F)cc(-c2cccc3c2cnn3C)cc1F` [Compound 35, 6-(2,6-difluoro-4-(1-methyl-1H-indazol-4-yl)benzyl)-6,7-dihydro-5H-pyrrolo[3,4-b]pyridin-5-one-7,7-d^2]: on human mAChR M1 [1], the EC50 is 2.42 µM and the Emax was determined as 63%. Besides, at human mAChR M1 [2], the concentration for a half-maximal effect (EC50) is above 10 µM and the Emax was determined as 2%.

Take `[2H]C1([2H])c2ncccc2C(=O)N1Cc1ccc(-c2cnc3nn(C)cc3c2)cc1C` [Compound 34, 6-(2-methyl-4-(2-methyl-2H-pyrazolo[3,4-b]pyridin-5-yl)benzyl)-6,7-dihydro-5H-pyrrolo[3,4-b]pyridin-5-one-7,7-d2]: on human mAChR M1 [1], the EC50 came to 2 µM and the maximal effect (Emax) came out at 82%. Besides, at human mAChR M1 [2], the half-maximal effective concentration (EC50) was above 10 µM and the Emax was found to be 3%.

For the molecule `[2H]C1([2H])c2ncccc2C(=O)N1Cc1c(F)cc(-c2ccc(Cl)c3nn(C([2H])([2H])[2H])cc23)cc1F` [Compound 73, 6-(4-(7-chloro-2-(methyl-d3)-2H-indazol-4-yl)-2,6-difluorobenzyl)-6,7-dihydro-5H-pyrrolo[3,4-b]pyridin-5-one-7,7-d2], on human mAChR M1 [1], the EC50 worked out at 0.17 µM and the Emax was found to be 77%. On human mAChR M1 [2], the “Agonist Activity Human M1 EC50” value was “Inactive” and the Emax worked out at 1%.

Consider `[2H]C1([2H])c2ncccc2C(=O)N1Cc1c(F)cc(-c2ccc(O)c3nn(C([2H])([2H])[2H])cc23)cc1F` [Compound 132, 6-(2,6-difluoro-4-(7-hydroxy-2-(methyl-d3)-2H-indazol-4-yl)benzyl)-6,7-dihydro-5H-pyrrolo[3,4-b]pyridin-5-one-7,7-d2], for which, on human mAChR M1 [1], the EC50 turned out to be 0.195 µM and the Emax was 77%. Further, on human mAChR M1 [2], the EC50 was 7.93 µM and the Emax was 47%.

Take `[2H]C([2H])([2H])Oc1ccc(-c2cc(F)c(CN3C(=O)c4cccnc4C3([2H])[2H])c(F)c2)c2cn(C([2H])([2H])[2H])nc12` [Compound 94, 6-(2,6-difluoro-4-(7-(methoxy-d3)-2-(methyl-d3)-2H-indazol-4-yl)benzyl)-6,7-dihydro-5H-pyrrolo[3,4-b]pyridin-5-one-7,7-d2]: the EC50 turned out to be 0.139 µM at human mAChR M1 [1] and 3.54 µM on human mAChR M1 [2]. For the same molecule, the Emax came out at 76% at human mAChR M1 [1] and 19% on human mAChR M1 [2].

In the case of `[2H]C1([2H])c2ncccc2C(=O)N1Cc1c(F)cc(-c2ccc(OC(F)(F)F)c3nn(C)cc23)cc1F` [Compound 103, 6-(2,6-difluoro-4-(2-methyl-7-(trifluoromethoxy)-2H-indazol-4-yl)benzyl)-6,7-dihydro-5H-pyrrolo[3,4-b]pyridin-5-one-7,7-d2], on human mAChR M1 [1], the EC50 came to 1.55 µM and the maximum response (Emax) was 73%. Also, at human mAChR M1 [2], the “Agonist Activity Human M1 EC50” value was “Inactive” and the Emax turned out to be 2%.

Take `[2H]C1([2H])c2ncccc2C(=O)N1Cc1c(F)cc(-c2cc(OC)c3nn(C)cc3c2)cc1F` [Compound 76, 6-(2,6-difluoro-4-(7-methoxy-2-methyl-2H-indazol-5-yl)benzyl)-6,7-dihydro-5H-pyrrolo[3,4-b]pyridin-5-one-7,7-d2]: at human mAChR M1 [1], the EC50 was found to be 0.058 µM and the Emax is 78%. Moreover, on human mAChR M1 [2], the EC50 stood at 3.74 µM and the Emax was 29%.

In the case of `[2H]C1([2H])c2ncccc2C(=O)N1Cc1c(C)cc(-c2ccc(OC3CC3)c3nn(C)cc23)cc1F` [Compound 196, 6-(4-(7-cyclopropoxy-2-methyl-2H-indazol-4-yl)-2-fluoro-6-methylbenzyl)-6,7-dihydro-5H-pyrrolo[3,4-b]pyridin-5-one-7,7-d2], at human mAChR M1 [1], the EC50 came to 0.437 µM and the Emax is 83%. For the same molecule, on human mAChR M1 [2], the EC50 is 8.68 µM and the Emax was 43%.
